Test results taken from the Deep4Chem optical property database.
Values joined by “and” are separate entries in the source; they are usually repeats but may differ in a detail not shown here. Equal values may be shown once. One block for each compound: values may come before it.

Test: solvent given as SMILES

emission maximum (in C1CCOC1): 523 nm
SMILES: CCOC(=O)c1ccc(C2=CC3=c4cc(-c5ccc(C(=O)OCC)cc5)c5nc(C(F)(F)C(F)(F)C(F)(F)F)nc6c(-c7ccc(C(=O)OCC)cc7)cc(c4c65)C4=CC(c5ccc(C(=O)OCC)cc5)=C5N=C(C(F)(F)C(F)(F)C(F)(F)F)N=C2C5C43)cc1 (configuration not stated)

SMILES: CCCCCn1c2cc(/C=C/c3ccc(N(c4ccccc4)c4ccccc4)cc3)ccc2c2ccc(/C=C/c3ccc(N(c4ccccc4)c4ccccc4)cc3)cc21
emission maximum (in Cc1ccccc1): 451 nm

emission maximum (in C1CCOC1): 410 nm
SMILES: FP(F)(c1c2ccccc2cc2ccccc12)(c1c2ccccc2cc2ccccc12)c1c2ccccc2cc2ccccc12

SMILES: CCC1=C(C)C2=Cc3c4ccccc4c4n3[B-](c3ccncc3)(Oc3ccccc3-4)[N+]2=C1C (configuration not stated)
emission maximum (in CC#N): 633 nm | emission maximum (in CCCCCC): 636 nm | emission maximum (in Cc1ccccc1): 639 nm | emission maximum (in ClCCl): 639 nm

emission maximum (in CCO): 443 nm
SMILES: CN(C)c1cc2c(cc1F)c(=O)c1cc(F)c(N3CCCCC3)cc1n2C

SMILES: Cc1ccc(C2=C3C=c4c(oc5ccccc45)=[N+]3[B-](F)(F)n3c2cc2c4ccccc4oc23)cc1
emission maximum (in C1CCCCC1): 596.5 nm | emission maximum (in C1CCOC1): 596.5 nm | emission maximum (in CC#N): 595.5 nm | emission maximum (in CCOC(C)=O): 594.5 nm | emission maximum (in CN(C)C=O): 598.5 nm | emission maximum (in CO): 594.5 nm | emission maximum (in Cc1ccccc1): 603 nm | emission maximum (in ClCCl): 599 nm and 597 nm

SMILES: O=S(=O)([O-])c1ccc(/C=C/c2ccc(-c3nnc(-c4ccc(/C=C/c5ccc(S(=O)(=O)[O-])cc5S(=O)(=O)[O-])cc4)o3)cc2)c(S(=O)(=O)[O-])c1
emission maximum (in C1CCOC1): 416 nm | emission maximum (in CC(C)=O): 415 nm | emission maximum (in CN(C)C=O): 430 nm

emission maximum (in C1CCCCC1): 359 nm
SMILES: CCCC1(CCC)c2cc(-c3cccc(Cc4ccc(/C=C/c5ccccc5)cc4)c3)ccc2-c2ccc(-c3cccc(Cc4ccc(/C=C/c5ccccc5)cc4)c3)cc21

emission maximum (in ClCCl): 766 nm
SMILES: CCN(CC)c1ccc2c(-c3ccccc3C(=O)O)c3c([o+]c2c1)/C(=C/c1ccc(N(C)C)s1)CCC3

SMILES: CCCCCCCCc1ccc(-c2ccc(/C=C(\C#N)c3ccc(-c4cccc5cccc(-c6ccc(/C(C#N)=C/c7ccc(-c8ccc(CCCCCCCC)cc8)cc7)cc6)c45)cc3)cc2)cc1
emission maximum (in Cc1ccccc1): 491 nm

SMILES: CC(C)[Si](C#Cc1ccc(-c2c3cccc4c5cccc6c(-c7ccc(C#C[Si](C(C)C)(C(C)C)C(C)C)cc7)c7cccc8c9cccc2c9c(c34)c(c65)c78)cc1)(C(C)C)C(C)C
emission maximum (in Cc1ccccc1): 744 nm

emission maximum (in CC#N): 573 nm | emission maximum (in CCO): 578 nm | emission maximum (in CN(C)C=O): 574 nm | emission maximum (in O): 588 nm
SMILES: CCN(CC)c1ccc2c(-c3ccc(S(=O)(=O)[O-])cc3S(=O)(=O)[O-])c3ccc(=[N+](CC)CC)cc-3oc2c1

emission maximum (in ClC(Cl)Cl): 429 nm
SMILES: CN(C)c1ccc(-c2ccc(-c3cc(-c4ccccc4)c(-c4ccccc4)c(-c4ccccc4)c3-c3ccccc3)nc2)cc1

SMILES: CN(c1ccccc1)c1ccc(/C=C2\C(=O)c3ccccc3S2(=O)=O)cc1
emission maximum (in C1CCOC1): 532 nm | emission maximum (in C1COCCO1): 542 nm | emission maximum (in CC#N): 511 nm | emission maximum (in CC(C)=O): 537 nm | emission maximum (in CCOC(C)=O): 533 nm | emission maximum (in CN(C)C=O): 524 nm | emission maximum (in CO): 525 nm | emission maximum (in CS(C)=O): 552 nm | emission maximum (in Cc1ccccc1): 576 nm | emission maximum (in ClC(Cl)Cl): 532 nm | emission maximum (in ClCCl): 547 nm

SMILES: CCn1c2ccccc2c2cc(C#Cc3cc(C#Cc4ccc5c(c4)c4ccccc4n5CC)ncn3)ccc21
emission maximum (in C1CCOC1): 451 nm | emission maximum (in CCOC(C)=O): 445 nm | emission maximum (in CN(C)C=O): 502 nm | emission maximum (in Cc1ccccc1): 411 nm | emission maximum (in ClCCl): 484 nm

SMILES: Oc1ccccc1/N=C/c1ccccc1Oc1ccccc1
emission maximum (in C1CCCCC1): 413 nm | emission maximum (in C1CCOC1): 412 nm | emission maximum (in C1COCCO1): 410 nm | emission maximum (in CC#N): 410 nm | emission maximum (in CC(C)=O): 410 nm | emission maximum (in CC(C)CO): 409 nm | emission maximum (in CC(C)O): 406 nm | emission maximum (in CCCCC): 425 nm | emission maximum (in CCCCCCCCO): 414 nm | emission maximum (in CCCCCCCO): 410 nm | emission maximum (in CCCCCCO): 410 nm | emission maximum (in CCCCO): 395 nm | emission maximum (in CCCCOC(C)=O): 409 nm | emission maximum (in CCCO): 410 nm | emission maximum (in CCO): 408 nm | emission maximum (in CCOC(C)=O): 400 nm | emission maximum (in CCOCC): 420 nm | emission maximum (in CN(C)C=O): 418 nm | emission maximum (in CO): 414 nm | emission maximum (in CS(C)=O): 410 nm | emission maximum (in Cc1ccccc1): 411 nm | emission maximum (in Cc1ccccc1C): 412 nm | emission maximum (in ClC(Cl)Cl): 410 nm | emission maximum (in ClCCl): 415 nm | emission maximum (in N#Cc1ccccc1): 410 nm | emission maximum (in OCCO): 415 nm | emission maximum (in c1ccccc1): 410 nm

emission maximum (in C1CCOC1): 451.19 nm
SMILES: CC[NH+](CC)c1ccc(-c2nc3c4ccccc4n(C)c3nc2-c2ccc(B(c3c(C)cc(C)cc3C)c3c(C)cc(C)cc3C)cc2)cc1

emission maximum (in C1CCCCC1): 390 nm
SMILES: CCCCCCCCOc1ccc2c3c(c4ccc(OCCCCCCCC)cc4c2c1)C(C)(C)c1ccccc1-3

emission maximum (in CCCCCC): 466 nm
SMILES: CC(C)[Si](C#Cc1c2nc3c(nc2c(C#C[Si](C(C)C)(C(C)C)C(C)C)c2nc4c(nc12)C1c2ccccc2C4c2ccccc21)C1c2ccccc2C3c2ccccc21)(C(C)C)C(C)C

emission maximum (in CC#N): 609 nm
SMILES: COC(=O)/C=C/c1sc(-c2ccc(N(C)C)cc2)cc1N

emission maximum (in CN(C)C=O): 720 nm
SMILES: CCN(CC)c1ccc(/C=C2\CC/C(=C\c3ccc(N(c4ccc(/C=C5\CC/C(=C\c6ccc(N(CC)CC)cc6)C5=C(C#N)C#N)cc4)c4ccc(/C=C5\CC/C(=C\c6ccc(N(CC)CC)cc6)C5=C(C#N)C#N)cc4)cc3)C2=C(C#N)C#N)cc1

SMILES: COc1ccc(/C=C/c2cc(/C=C/c3ccc(OC)cc3)nc(/C=C/c3ccc(C(F)(F)F)cc3)n2)cc1
emission maximum (in C1CCOC1): 436 nm | emission maximum (in CC#N): 463 nm | emission maximum (in CC(C)=O): 452 nm | emission maximum (in CCCCCCC): 398 nm | emission maximum (in CS(C)=O): 475 nm | emission maximum (in Cc1ccccc1): 411 nm | emission maximum (in ClCCl): 441 nm

emission maximum (in ClCCl): 413 nm
SMILES: COc1ccc(-c2cn3ccc[n+]3[n-]2)cc1

emission maximum (in CO): 809 nm
SMILES: CC1(C)C(/C=C/C2=C(Cl)C(=C/C=C3/N(Cc4ccc(F)cc4)c4ccccc4C3(C)C)/CCC2)=[N+](Cc2ccc(F)cc2)c2ccccc21

emission maximum (in ClC(Cl)Cl): 383 nm
SMILES: CC(C)(C)NC(=O)c1c([Si](C)(C)C)cc2ccc3cccc4ccc1c2c34

emission maximum (in CCO): 564 nm | emission maximum (in O): 572 nm
SMILES: CN(C)c1ccc2c(-c3ccc(N)cc3C(=O)[O-])c3ccc(=[N+](C)C)cc-3oc2c1

emission maximum (in ClCCl): 441 nm
SMILES: C(S/C=C/c1ccc(-c2ccc(/C=C/SC=C(c3ccccc3)c3ccccc3)cc2)cc1)=C(c1ccccc1)c1ccccc1

emission maximum (in CO): 623 nm
SMILES: CN1C(=CC=Cc2nc3nc4ccccc4nc3s2)C(C)(C)c2ccccc21

emission maximum (in CCO): 576 nm | emission maximum (in ClCCl): 573 nm
SMILES: Cc1ccccc1-c1c2ccc(=[N+]3CCCC3)cc-2oc2cc(N3CCCC3)ccc12

SMILES: O=Cc1nc2ccc(C#Cc3ccc(N(c4ccc(C#Cc5ccc6nc(C=O)sc6c5)cc4)c4ccc(C#Cc5ccc6nc(C=O)sc6c5)cc4)cc3)cc2s1
emission maximum (in Cc1ccccc1): 500 nm

emission maximum (in CCO): 417 nm
SMILES: COC(=O)CNC(=O)CCNc1cccc2ccccc12

SMILES: CCCCN(CCCC)c1ccc(/C=C/c2ccc3c(c2)CCc2cc(/C=C/c4ccc(N(CCCC)CCCC)cc4)ccc2-3)cc1
emission maximum (in CS(C)=O): 536.5 nm | emission maximum (in Cc1ccccc1): 456.4 nm

emission maximum (in C1CCCCC1): 470 nm
SMILES: CN(C)c1ccc(/C=C/C=C/C=C/c2ccc(B(O)O)cc2)cc1

SMILES: CC[N+]1(CC)CN2C(=N1)C(C(=O)O)=Cc1cc(C)c(C)cc12
emission maximum (in O): 466 nm

SMILES: CC(C)c1cc(C(C)C)c(B2c3ccccc3Oc3cc(N4c5ccccc5C5(c6ccccc6Oc6ccccc65)c5ccccc54)ccc32)c(C(C)C)c1
emission maximum (in Cc1ccccc1): 451 nm

emission maximum (in ClCCl): 425 nm
SMILES: O=S1(=O)Nc2ccc3c(c2-c2ccccc21)-c1ccccc1S(=O)(=O)N3

emission maximum (in C1CCOC1): 418 nm
SMILES: c1ccc(-n2c(-c3c(-n4c5ccccc5c5ccccc54)cccc3-n3c4ccccc4c4ccccc43)nc3ccccc32)cc1

emission maximum (in ClCCl): 524 nm
SMILES: CC1=C(c2ccc(N(C)C)cc2)C(C)=[N+]2C1=C(c1c(-c3ccccn3)nc3ccccn13)c1c(C)cc(C)n1[B-]2(F)F

SMILES: CC1=C(c2cccs2)C(C)=[N+]2C1=C(c1ccc(O)cc1)c1c(C)c(-c3cccs3)c(C)n1[B-]2(F)F
emission maximum (in CO): 602 nm | emission maximum (in Cc1ccccc1): 604 nm | emission maximum (in ClCCl): 605 nm

emission maximum (in CC#N): 579.08 nm
SMILES: Cn1ccc(-c2nc3ccccc3nc2/C=C/N2CCCC2)c1

emission maximum (in ClC(Cl)Cl): 516.5 nm
SMILES: CC1=CC(C)=[N+]2C1=C(c1ccc(I)cc1)c1c(C)cc(C)n1[B-]2(Oc1ccc([N+](=O)[O-])cc1)Oc1ccc([N+](=O)[O-])cc1

emission maximum (in ClCCl): 505 nm
SMILES: CCOC(=O)c1ccc(C2CC(c3cccc4ccccc34)=NN2c2ccc(OC)cc2)cc1 (configuration not stated)

emission maximum (in CC#N): 411 nm | emission maximum (in CCCCCC): 405 nm | emission maximum (in CO): 411 nm | emission maximum (in CS(C)=O): 416 nm | emission maximum (in ClC(Cl)Cl): 418 nm
SMILES: CCC1=C(C)C2=Cc3ccccc3B(O)N2C1=O

SMILES: CC(C)(C)c1ccccc1N(c1ccccc1)c1ccc(S(=O)(=O)c2ccc(S(=O)(=O)c3ccc(N(c4ccccc4)c4ccccc4C(C)(C)C)cc3)cc2)cc1
emission maximum (in Cc1ccccc1): 444 nm | emission maximum (in c1cc(-n2c3ccccc3c3ccccc32)nc(-n2c3ccccc3c3ccccc32)c1): 465.06 nm

SMILES: N#CC(C#N)=Cc1nc2ccc(C#Cc3ccc(N(c4ccccc4)c4ccccc4)cc3)cc2s1
emission maximum (in Cc1ccccc1): 617 nm

emission maximum (in CC#N): 480 nm
SMILES: O=c1oc2cc(S(=O)(=O)O)c3ccccc3c2nc1-c1ccccc1

SMILES: CCCCCCCCOC(=O)c1cc2ccc3ccccc3c2c(C#N)c1N
emission maximum (in Cc1ccccc1): 467 nm

SMILES: CC(C)[Si](C#Cc1c2ccccc2c(C#Cc2c3ccccc3c(C#Cc3c4ccccc4c(C#Cc4c5ccccc5c(C#Cc5c6ccccc6c(C#C[Si](C(C)C)(C(C)C)C(C)C)c6ccccc56)c5ccccc45)c4ccccc34)c3ccccc23)c2ccccc12)(C(C)C)C(C)C
emission maximum (in Cc1ccccc1): 623 nm

SMILES: CC(C)(C)c1ccc2c(c1)c1cc(C(C)(C)C)ccc1n2-c1nc2ccccc2nc1-n1c2ccc(C(C)(C)C)cc2c2cc(C(C)(C)C)ccc21
emission maximum (in C1CCOC1): 544.34 nm | emission maximum (in CCCCCC): 488.69 nm | emission maximum (in Cc1ccccc1): 527 nm
